Assays:
[1] = tested on: human non-small cell lung cancer cell line NCI-H460; test: Cell proliferation inhibition test by sensitivity-enhancing to ionizing radiation (Cell Titer Glo); format: cell-based; conditions: concentration in which SER became 2, NCI-H460 cells, ionizing radiation 2 Gy, cultured 120 hour
Procedure, shortened: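 Radiosensitisation measured as SER, a ratio of Cell Titer Glo luminescence in irradiated vs unirradiated plates relative to DMSO; SER2, the concentration yielding SER 2, came from sigmoidal regression. Compound (0.1% DMSO) was given 24 h post-seeding, 2 Gy applied 30 min later, then 120 hour culture at 37° C.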

ATM = biological target: T1, ATM (Homo sapiens, UniProt Q13315); test: ATM inhibition test (phosphorylation of Chk2 generated by ionizing radiation, AlphaScreen SureFire); format: cell-based; conditions: phosphorylated Chk2 in NCI-H460 cells, ionizing radiation 8Gy, 1 hour after test compound treatment; read-out: ATM inhibitory activity
T1 construct: detecting phosphorylation of Chk2 in a human non-small cell lung cancer cell line NCI-H460 (ATCC company); host or cells: NCI-H460 human non-small cell lung cancer cells
Procedure, shortened: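 NCI-H460 cells treated with compound for 1 hour, then irradiated with 8Gy and incubated 1 hour at 37° C. Phospho-Chk2 measured by AlphaScreen SureFire. Inhibition ratio calculated relative to untreated irradiated and non-irradiated wells.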

T1 sequence (Q13315 whole entry): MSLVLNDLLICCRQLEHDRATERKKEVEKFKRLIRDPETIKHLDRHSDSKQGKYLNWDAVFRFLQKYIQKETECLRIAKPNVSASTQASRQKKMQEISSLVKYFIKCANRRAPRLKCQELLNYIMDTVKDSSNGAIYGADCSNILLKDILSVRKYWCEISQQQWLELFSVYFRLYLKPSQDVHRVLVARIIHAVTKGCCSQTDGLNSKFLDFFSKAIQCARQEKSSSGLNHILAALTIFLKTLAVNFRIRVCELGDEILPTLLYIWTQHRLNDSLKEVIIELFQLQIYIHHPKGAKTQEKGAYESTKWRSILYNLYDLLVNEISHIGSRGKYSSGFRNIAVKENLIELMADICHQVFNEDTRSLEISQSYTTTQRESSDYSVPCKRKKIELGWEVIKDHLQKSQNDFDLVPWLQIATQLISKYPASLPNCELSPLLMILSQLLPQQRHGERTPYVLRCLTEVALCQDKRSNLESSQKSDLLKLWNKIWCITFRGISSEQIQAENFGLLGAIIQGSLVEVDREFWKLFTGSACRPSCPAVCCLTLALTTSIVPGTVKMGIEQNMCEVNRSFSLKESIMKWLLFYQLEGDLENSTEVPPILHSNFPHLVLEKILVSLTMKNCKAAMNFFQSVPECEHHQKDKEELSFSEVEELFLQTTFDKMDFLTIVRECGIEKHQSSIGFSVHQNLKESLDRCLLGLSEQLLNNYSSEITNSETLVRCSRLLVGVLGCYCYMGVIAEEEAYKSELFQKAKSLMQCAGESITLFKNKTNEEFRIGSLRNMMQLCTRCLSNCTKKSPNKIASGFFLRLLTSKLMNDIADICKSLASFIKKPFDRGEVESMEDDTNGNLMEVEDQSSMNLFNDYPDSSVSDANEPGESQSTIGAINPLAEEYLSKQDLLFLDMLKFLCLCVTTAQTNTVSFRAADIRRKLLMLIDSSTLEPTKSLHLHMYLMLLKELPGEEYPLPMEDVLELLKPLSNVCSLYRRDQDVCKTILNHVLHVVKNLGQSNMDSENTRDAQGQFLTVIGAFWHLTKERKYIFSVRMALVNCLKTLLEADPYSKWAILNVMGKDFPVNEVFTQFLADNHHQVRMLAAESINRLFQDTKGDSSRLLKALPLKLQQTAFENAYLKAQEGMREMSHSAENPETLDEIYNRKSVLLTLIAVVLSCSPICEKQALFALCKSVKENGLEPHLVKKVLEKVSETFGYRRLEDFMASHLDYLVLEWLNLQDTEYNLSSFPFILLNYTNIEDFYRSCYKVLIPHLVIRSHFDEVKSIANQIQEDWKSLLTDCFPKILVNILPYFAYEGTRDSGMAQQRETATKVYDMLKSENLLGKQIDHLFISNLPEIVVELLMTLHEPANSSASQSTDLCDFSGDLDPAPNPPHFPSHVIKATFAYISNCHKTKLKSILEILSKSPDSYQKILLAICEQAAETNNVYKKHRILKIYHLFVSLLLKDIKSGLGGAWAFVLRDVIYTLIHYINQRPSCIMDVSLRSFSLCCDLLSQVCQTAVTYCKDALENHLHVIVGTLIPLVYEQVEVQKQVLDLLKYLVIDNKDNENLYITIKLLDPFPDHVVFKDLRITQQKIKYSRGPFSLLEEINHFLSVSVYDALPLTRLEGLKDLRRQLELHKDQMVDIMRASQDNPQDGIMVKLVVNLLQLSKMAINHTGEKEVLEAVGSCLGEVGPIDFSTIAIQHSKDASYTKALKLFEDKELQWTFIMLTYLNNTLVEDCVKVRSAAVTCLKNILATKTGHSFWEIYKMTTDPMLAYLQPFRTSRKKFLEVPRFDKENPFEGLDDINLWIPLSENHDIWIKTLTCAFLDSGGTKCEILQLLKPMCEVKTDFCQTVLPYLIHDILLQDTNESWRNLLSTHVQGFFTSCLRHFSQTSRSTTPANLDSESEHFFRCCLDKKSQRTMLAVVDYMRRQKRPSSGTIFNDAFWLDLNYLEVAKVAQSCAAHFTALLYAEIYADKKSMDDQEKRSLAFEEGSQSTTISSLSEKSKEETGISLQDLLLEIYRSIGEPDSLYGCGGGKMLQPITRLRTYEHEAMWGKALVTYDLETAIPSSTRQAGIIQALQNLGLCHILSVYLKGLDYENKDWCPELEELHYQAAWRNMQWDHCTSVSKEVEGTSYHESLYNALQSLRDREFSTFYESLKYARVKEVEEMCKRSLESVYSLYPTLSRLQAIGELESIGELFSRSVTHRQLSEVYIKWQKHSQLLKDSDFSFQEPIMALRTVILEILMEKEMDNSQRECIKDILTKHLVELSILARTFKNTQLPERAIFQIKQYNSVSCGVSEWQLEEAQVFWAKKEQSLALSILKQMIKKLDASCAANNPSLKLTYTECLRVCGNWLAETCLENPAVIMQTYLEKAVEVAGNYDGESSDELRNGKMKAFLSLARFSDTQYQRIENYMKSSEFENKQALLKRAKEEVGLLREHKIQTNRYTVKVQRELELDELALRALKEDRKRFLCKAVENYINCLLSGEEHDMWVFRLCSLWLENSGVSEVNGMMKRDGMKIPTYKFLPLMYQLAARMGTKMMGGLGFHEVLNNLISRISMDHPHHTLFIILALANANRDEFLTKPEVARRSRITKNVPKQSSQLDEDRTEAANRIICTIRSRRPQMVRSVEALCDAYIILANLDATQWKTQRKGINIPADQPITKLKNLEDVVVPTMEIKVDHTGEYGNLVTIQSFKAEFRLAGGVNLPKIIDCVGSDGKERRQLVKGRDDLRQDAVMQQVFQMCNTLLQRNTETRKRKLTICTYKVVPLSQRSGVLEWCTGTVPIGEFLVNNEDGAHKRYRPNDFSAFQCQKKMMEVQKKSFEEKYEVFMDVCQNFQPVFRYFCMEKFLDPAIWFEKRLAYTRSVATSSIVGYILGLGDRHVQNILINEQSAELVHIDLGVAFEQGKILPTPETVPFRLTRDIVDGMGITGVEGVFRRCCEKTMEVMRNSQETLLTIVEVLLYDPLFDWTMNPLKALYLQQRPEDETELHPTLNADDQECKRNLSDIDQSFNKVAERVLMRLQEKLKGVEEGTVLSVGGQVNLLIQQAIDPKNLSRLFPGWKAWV

Structure (SMILES) | SER2 (concentration at which the radiation sensitivity-enhancement ratio reaches 2) ([1]; Homo sapiens, NCI-H460, 120 h) | IC50 (ATM) | SER2 (concentration at which the radiation sensitivity-enhancement ratio reaches 2) ([1]; Homo sapiens) | SER2 (concentration at which the radiation sensitivity-enhancement ratio reaches 2) [1]
O=c1cc(N2CCOCC2)cc(-c2cccc3c2Sc2ccc(NCc4cc(Cl)ccn4)cc2S3)[nH]1 [Example 1-12-3, 6-(7-(((4-Chloropyridin-2-yl)methyl)amino)thianthren-1-yl)-4-morpholino pyridin-2 (1H)-one] | 100 to 500 nM | < 100 nM | – | –
COCCN1CCC(Nc2ccc3c(c2)Sc2cccc(-c4cc(N5CCOCC5)cc(=O)[nH]4)c2S3)CC1 [Example 1-26-1, 6-(7-((1-(2-methoxyethyl)piperidin-4-yl)amino)thianthren-1-yl)-4-morpholinopyridin-2(1H)-one] | 100 to 500 nM | < 100 nM | – | –
COc1cncc(CNc2ccc3c(c2)Sc2cccc(-c4cc(N5CCOCC5)cc(=O)[nH]4)c2S3)c1 [Example 1-44-1, 6-(7-(((5-methoxypyridin-3-yl)methyl)amino)thianthren-1-yl)-4-morpholinopyridin-2(1H)-one] | 500 to 2000 nM | < 100 nM | – | –
O=c1cc(N2CCOCC2)cc(-c2cccc3c2Sc2ccc(NC(CF)CN4CCCCC4)cc2S3)[nH]1 (stereo not shown) [Example 1-41-2, 6-(7-((1-Fluoro-3-(piperidin-1-yl)propan-2-yl)amino)thianthren-1-yl)-4-morpholinopyridin-2(1H)-one] | – | < 100 nM | 100 to 500 nM | –
Cc1cccc(CNc2ccc3c(c2)Cc2ccc(F)c(-c4cc(N5CCOCC5)cc(=O)[nH]4)c2O3)n1 [Example 2-46-4, 6-(3-Fluoro-7-(((6-methylpyridin-2-yl)methyl)amino)-9H-xanthen-4-yl)-4-morpholinopyridin-2(1H)-one] | 100 to 500 nM | < 100 nM | – | –
O=c1cc(N2CCOCC2)cc(-c2cccc3c2Oc2ccc(NCc4cc(Cl)ccn4)cc2C3)[nH]1 [Example 2-2-64, 6-(7-(((4-Chloropyridin-2-yl)methyl)amino)-9H-xanthen-4-yl)-4-morpholino pyridin-2(1H)-one] | 100 to 500 nM | < 100 nM | – | –
CC1COCCN1CCNc1ccc2c(c1)Sc1cccc(-c3cc(N4CCOCC4)cc(=O)[nH]3)c1S2 (stereo not shown) [Example 1-16-7, 6-(7-((2-(3-Methylmorpholino)ethyl)amino)thianthren-1-yl)-4-morpholinopyridin-2(1H)-one] | – | < 100 nM | 100 to 500 nM | –
Cc1cnc(C(C)Nc2ccc3c(c2)Sc2cccc(-c4cc(N5CCOCC5)cc(=O)[nH]4)c2S3)nc1 (single isomer, unassigned) [Example 1-12-139-2, 6-(7-((1-(5-methylpyrimidin-2-yl)ethyl)amino)thianthren-1-yl)-4-morpholinopyridin-2(1H)-one] | – | < 100 nM | – | 100 to 500 nM
Cc1ccnc(C(CO)Nc2ccc3c(c2)Sc2cccc(-c4cc(N5CCOCC5)cc(=O)[nH]4)c2S3)c1 (single isomer, unassigned) [Example 1-12-138-2, 6-(7-((2-hydroxy-1-(4-methylpyridin-2-yl)ethyl)amino)thianthren-1-yl)-4-morpholinopyridin-2(1H)-one] | < 100 nM | < 100 nM | – | –
COCCOCC(Nc1ccc2c(c1)Sc1cccc(-c3cc(N4CCOCC4)cc(=O)[nH]3)c1S2)c1nccc(C)n1 (stereo not shown) [Example 1-12-97, 6-(7-((2-(2-Methoxyethoxy)-1-(4-methylpyrimidin-2-yl)ethyl)amino)thianthren-1-yl)-4-morpholino pyridin-2(1H)-one] | 100 to 500 nM | < 100 nM | – | –
COCC(CN1CCOCC1)Nc1ccc2c(c1)Sc1cccc(-c3cc(N4CCOCC4)cc(=O)[nH]3)c1S2 (single isomer, unassigned) [Example 1-17-1-2, 6-(7-((1-methoxy-3-morpholinopropan-2-yl)amino)thianthren-1-yl)-4-morpholinopyridin-2(1H)-one] | < 100 nM | < 100 nM | – | –
CC(Nc1ccc2c(c1)Sc1cccc(-c3cc(N4CCOCC4)cc(=O)[nH]3)c1S2)c1ncc(CO)cn1 (single isomer, unassigned) [Example 1-12-142-1, 6-(7-((1-(5-(hydroxymethyl)pyrimidin-2-yl)ethyl)amino)thianthren-1-yl)-4-morpholinopyridin-2(1H)-one] | 100 to 500 nM | < 100 nM | – | –
Cc1ccc(C(C)Nc2ccc3c(c2)Sc2cccc(-c4cc(N5CCOCC5)cc(=O)[nH]4)c2S3)nc1 (stereo not shown) [Example 1-12-113, 6-(7-((1-(5-Methylpyridin-2-yl)ethyl)amino)thianthren-1-yl)-4-morpholino pyridin-2(1H)-one] | 100 to 500 nM | < 100 nM | – | –
CNc1ncc(CNc2ccc3c(c2)Sc2cccc(-c4cc(N5CCOCC5)cc(=O)[nH]4)c2S3)cn1 [Example 1-12-46, 6-(7-(((2-(Methylamino)pyrimidin-5-yl)methyl)amino)thianthren-1-yl)-4-morpholino pyridin-2(1H)-one] | 100 to 500 nM | < 100 nM | – | –
CC(CNc1ccc2c(c1)Sc1cccc(-c3cc(N4CCOCC4)cc(=O)[nH]3)c1S2)N1CCOCC1 (racemic) [Example 1-9-2-1, 4-Morpholino-6-(7-((2-morpholinopropyl)amino)thianthren-1-yl)pyridin-2(1H)-one] | 100 to 500 nM | < 100 nM | – | –
Cc1cccc(C(CCN(C)C)Nc2ccc3c(c2)Sc2cccc(-c4cc(N5CCOCC5)cc(=O)[nH]4)c2S3)n1 (stereo not shown) [Example 1-22-1, 6-(7-((3-(dimethylamino)-1-(6-methylpyridin-2-yl)propyl)amino)thianthren-1-yl)-4-morpholinopyridin-2(1H)-one] | 100 to 500 nM | < 100 nM | – | –
Cc1ccnc(C(C)Nc2ccc3c(c2)Sc2cccc(-c4cc(N5CCOCC5)cc(=O)[nH]4)c2S3)n1 (stereo not shown) [Example 1-12-69, 6-(7-((1-(4-Methylpyrimidin-2-yl)ethyl)amino)thianthren-1-yl)-4-morpholino pyridin-2(1H)-one] | < 100 nM | < 100 nM | – | –
CCCN1CCC(Nc2ccc3c(c2)Cc2cccc(-c4cc(N5CCOCC5)cc(=O)[nH]4)c2O3)CC1 [Example 2-28-32, 4-Morpholino-6-(7-((1-propylpiperidin-4-yl)amino)-9H-xanthen-4-yl) pyridin-2(1H)-one] | 500 to 2000 nM | < 100 nM | – | –
O=c1cc(N2CCOCC2)cc(-c2cccc3c2Oc2ccc(NCc4cncc(C5C=CCC5)c4)cc2C3)[nH]1 (stereo not shown) [Example 2-2-60, 6-(7-(((5-(Cyclopent-2-en-1-yl)pyridin-3-yl)methyl)amino)-9H-xanthen-4-yl)-4-morpholino pyridin-2(1H)-one] | 500 to 2000 nM | < 100 nM | – | –
Cc1cnc(C(CCN(C)C)Nc2ccc3c(c2)Sc2cccc(-c4cc(N5CCOCC5)cc(=O)[nH]4)c2S3)cn1 (stereo not shown) [Example 1-22-2, 6-(7-((3-(Dimethylamino)-1-(5-methylpyrazin-2-yl)propyl)amino)thianthren-1-yl)-4-morpholino pyridin-2 (1H)-one] | 100 to 500 nM | < 100 nM | – | –
N#Cc1cccc(CNc2ccc3c(c2)Sc2cccc(-c4cc(N5CCOCC5)cc(=O)[nH]4)c2S3)n1 [Example 1-12-38, 6-(((6-(4-Morpholino-6-oxo-1,6-dihydropyridin-2-yl)thianthren-2-yl)amino)methyl)picolinonitrile] | < 100 nM | < 100 nM | – | –
Cc1ccc(C(Nc2ccc3c(c2)Sc2cccc(-c4cc(N5CCOCC5)cc(=O)[nH]4)c2S3)[C@H]2CN(CCN(C)C)CCO2)nc1 (single isomer, unassigned) [Example 10-2] | < 100 nM | < 100 nM | – | –
Cc1ccc(C(C)(C)Nc2ccc3c(c2)Sc2cccc(-c4cc(N5CCOCC5)cc(=O)[nH]4)c2S3)nc1 [Example 1-50-2, 6-(7-((2-(5-Methylpyridin-2-yl)propan-2-yl)amino)thianthren-1-yl)-4-morpholino pyridin-2(1H)-one] | 100 to 500 nM | < 100 nM | – | –
COc1ncc(CNc2ccc3c(c2)Sc2cccc(-c4cc(N5CCOCC5)cc(=O)[nH]4)c2O3)cc1F [Example 4-4-14, 6-(8-(((5-Fluoro-6-methoxypyridin-3-yl)methyl)amino)phenoxathiin-4-yl)-4-morpholino pyridin-2(1H)-one] | 100 to 500 nM | < 100 nM | – | –
N#Cc1ccnc(CNc2ccc3c(c2)Cc2cccc(-c4cc(N5CCOCC5)cc(=O)[nH]4)c2O3)c1 [Example 2-14-11, 2-(((5-(4-Morpholino-6-oxo-1,6-dihydropyridin-2-yl)-9H-xanthen-2-yl)amino)methyl) isonicotinonitrile] | 100 to 500 nM | < 100 nM | – | –
O=c1cc(N2CCOCC2)cc(-c2cccc3c2Oc2ccc(NCc4ccc(Cl)s4)cc2C3)[nH]1 [Example 2-13-7, 6-(7-(((5-Chlorothiophen-2-yl)methyl)amino)-9H-xanthen-4-yl)-4-morpholino pyridin-2(1H)-one] | 500 to 2000 nM | < 100 nM | – | –

Reference: patent US9586951B2 (FUJIFILM Corporation, priority 2013, dated 2017)
